Measurements taken from patent publication US4190725A, “5,6-Diaryl-1,2,4-triazines” (Eli Lilly and Company, priority 1978, dated 1980).

Tested on: Erythemic response
Assay: Erythemic response inhibition, UV-exposed guinea pig skin (modified method of Winder), topical
Assay type: in vivo, Albino guinea pigs
Conditions: groups of four; for ED50 (dose which produced a 50% inhibition of the erythemic response): in 0.1 cc. ethanol, 12 cm.^2 skin, plotted or calculated, in several instances by extrapolation; for Inhibition % (% Inhibition compared with control): dose 100 mcg./12 cm.^2, in 0.1 cc. ethanol
Procedure: A modification of the method of Winder was used to measure the anti-inflammatory activites of the compounds of the present invention; see C. V. Winder, et al., Arch. Int. Pharmacodyn., 116, 261 (1958). Albino guinea pigs of either sex, weighing 225-300 grams, were shaved on the back and chemically depilated (Nair® Lotion Hair Remover, Carter Products, N.Y., N.Y.) 18-20 hours before exposure to ultraviolet light. The animals, in groups of four and bearing identifying ear tags, were treated by applying to an area of skin of about 12 cm.^2 a solution of test compound dissolved in 0.1 cc. of ethanol. The control treatment consisted of administering only the drug vehicle, ethanol, to a group of four animals. Groups of four animals each were given different treatment levels of test compound to obtain dose responses. Random order and blind administration of the test compounds were employed; drug identification was not made until after all animals were graded. Immediately prior to drug application, the animals were exposed in groups of four to a high-intensity ultraviolet light for a measured period of time (usually 4-7 seconds). The ultraviolet light source, a Hanovia Lamp (Kroymayer-Model 10), was placed in contact with the skin of the animal's back. A gummed notebook paper reinforcement was affixed to the lamp lens to provide an unexposed area of contrast for grading the erythema. Beginning one hour after exposure and thereafter at half-hour intervals for another 11/2 hours, the degree of resulting erythema was graded by an arbiturary scoring system based upon the degree of contrast and redness formed. Anti-inflammatory agents delay the development of the erythema and usually have their greatest effect at the initial grading periods. The scores were, therefore, weighted by factors of 4, 3, 2, and 1 at the 1.0, 1.5, 2.0, and 2.5 hour scoring times, respectively. The erythema was graded as follows: […]
______________________________________
Score Appearance of Exposed Area
0 No redness and no contrast
1 Slight redness with a faint
2 Slight to moderate redness
with a distinct outline
3 Marked redness with a distinct
Total scores from each treatment group of four guinea pigs were compared to the control treatment, and the percent inhibition was calculated as follows: [formula]
A dose-response graph was obtained by plotting dose versus percent inhibition, the points representing the average of each treatment group of four guinea pigs. The dose (ED50) in micrograms per 12 cm.^2 (mcg./12 cm.^2) which produced a 50% inhibition of the erythemic response for the particular compound tested was obtained in several instances by extrapolation. Table I below summarizes the results obtained from testing representative compounds of the invention by the foregoing method. The plotted or calculated ED50 for the particular compound tested, where available, is given in the last column of Table I.

SMILES | ED50 (dose which produced a 50% inhibition of the erythemic response) [mcg./12 cm.^2] | Inhibition % (% Inhibition compared with control) [%]
COc1ccc(-c2nnc(OC)nc2-c2ccc(OC)cc2)cc1 [CH3 O 1 OCH3 OCH3, 3-methoxy-5,6-bis(4-methoxyphenyl)-1,2,4-triazine] | 7 | 
COc1ccc(-c2nnc(SC(C)C)nc2-c2ccc(OC)cc2)cc1 [CH(CH3)2 S 1 OCH3 OCH3, 3-isopropylthio-5,6-bis(4-methoxyphenyl)-1,2,4-triazine] |  | 35
CCCCCCSc1nnc(-c2ccc(OC)cc2)c(-c2ccc(OC)cc2)n1 [C6 H13 S 1 OCH3 OCH3, 3-hexylthio-5,6-bis(4-methoxyphenyl)-1,2,4-triazine] | 37.4 | 
COc1ccc(-c2nnc(SCc3ccccc3)nc2-c2ccc(OC)cc2)cc1 [CH2 C6 H5 S 1 OCH3 OCH3, 3-benzylthio-5,6-bis(4-methoxyphenyl)-1,2,4-triazine] |  | 49
CCSc1nnc(-c2ccc(OC)cc2)c(-c2ccc(OC)cc2)n1 [C2 H5 S 1 OCH3 OCH3, 3-ethylthio-5,6-bis(4-methoxyphenyl)-1,2,4-triazine] | 21.3 | 
CCc1nnc(-c2ccc(OC)cc2)c(-c2ccc(OC)cc2)n1 [C2 H5 -- 0 OCH3 OCH3, 3-ethyl-5,6-bis(4-methoxyphenyl)-1,2,4-triazine] | 4 | 
COc1ccc(-c2nnc(C)nc2-c2ccc(OC)cc2)cc1 [CH3 -- 0 OCH3 OCH3, 5,6-bis(4-methoxyphenyl)-3-methyl-1,2,4-triazine] | 2.4 | 
COc1ccc(-c2nnc(SC)nc2-c2ccc(OC)cc2)cc1 [CH3 S 1 OCH3 OCH3, 5,6-bis(4-methoxyphenyl)-3-methylthio-1,2,4-triazine] | 9 | 
CCOc1nnc(-c2ccc(OC)cc2)c(-c2ccc(OC)cc2)n1 [C2 H5 O 1 OCH3 OCH3, 3-ethoxy-5,6-bis(4-methoxyphenyl)-1,2,4-triazine] | 3.1 | 
